We go through nine compounds from patent US20240217917A1, “PHOTOLYTICALLY DEGRADABLE COMPOUNDS AND METHODS” (The University of Stavanger, priority 2021, published 2024).

The nature of data set [1]: Photolysis of compounds 1-5, 125 W medium pressure mercury vapour lamp, conversion by 1H-NMR. The format is physicochemical. Conditions: for stability under irradiation at lower pH: pH values lower than 11. The protocol: Following the procedure by Wan and Muralidharan (Wan, P.; Muralidharan, S. J. Am. Chem. Soc. 1988, 110 (13), 4336-4345) aminol 1 (compound 1) was photolysed in acetonitrile and water (7:3, v:v) at the appropriate pH using a 125 W medium pressure mercury vapour lamp. Seven experiments were performed from pH 13 to pH 1 with a concentration of around 0.68 mM, and each reaction was irradiated for. 2 hours Following liquid-liquid extraction with DCM, all reaction mixtures were analysed with ^1H-NMR spectroscopy. Initially it was expected that a mechanism similar to the nitrophenethyl alcohols (Scheme 3) would occur and the expected products would therefore be N-methyl-p-nitroaniline, phenylacetaldehyde, 2-(p-nitroaniline)acetaldehyde, and toluene
Because of this, it seems likely that following excitation to the singlet state and intersystem crossing (ISC) to the triplet state, a proton is abstracted and initiates decomposition. Two products were identified from the NMR data; p-nitroaniline and benzaldehyde. This means that there are two carbon atoms in the starting material unaccounted for (Scheme 13). A reasonable hypothesis is that they remain in the aqueous phase during extraction as formaldehyde or glyoxal.

Data set [2] in a line: UV-vis spectra. It counts as physicochemical. Conditions: ethanol as solvent. Here is the method: As illustrated in the UV-vis spectra, where the nitro group is positioned greatly influences the λmax. With nitro substitution on the aniline these values are around 380 and 400 nm, whereas for the two other compounds a hypsochromic shift is observed all the way down to 248 nm.
UV-vis spectra were obtained on an Agilent 8453 single-beam UV-vis spectrophotometer with a deuterium-discharge lamp for the UV range and a tungsten lamp for the visible wavelength range. Samples were analysed in an Agilent open-top UV quartz cell (10 mm, 3.0 mL) with ethanol as solvent. Wavelengths are reported in nm and molar attenuation coefficients in M^−1cm^−1.

Data set [3] is described as follows: Photolysis of compounds 1-5, 125 W medium pressure mercury vapour lamp, conversion by 1H-NMR. The format is physicochemical. Conditions: same conditions.
Data set [4] can be described thus: Photolysis of compounds 6-9, 6 W low-pressure mercury vapor lamp, conversion by 1H-NMR. It counts as physicochemical. Particulars: pH 13; acetonitrile/NaOH solution 30/70; 254 nm low-pressure lamp; 24 hours. The protocol:
Aminol 6-9 (compounds 6-9) were dissolved in acetonitrile and diluted with a sodium hydroxide solution at pH 13 (30/70, V/V). Since all the compounds have strong absorption bands around 250 nm (FIG. 8), a 6 W low-pressure mercury vapor lamp was chosen as the irradiation source, since it emits mainly at 254 nm. All reactions were carried out in a 75 mL gas inlet flask (˜0.7 mM) under a constant stream of nitrogen with a quartz well cold finger for 24 hours.
Following aqueous workup, the reaction mixtures were analysed with ^1H-NMR spectroscopy. […] The photodegradation reaction for compound 6 can be seen in Scheme 21. Additionally, the two doublets at 7.47 and 8.13 ppm (Hc and Ha) have disappeared into a complicated multiplet, and the aliphatic protons around 3 ppm are no longer visible (FIG. 6).

The subject of data set [5] is S. Epidermidis. The data set can be described thus: Minimum inhibitory concentration (MIC) screen, OD 600 nm. The format is cell-based. Set-up: key to Minimum inhibitory concentration, S. Epidermidis: I = inactive, i.e. below the activity threshold. Particulars: screened at 100-1.6 μM. The protocol:
(§1) With compounds 6-9 and the crude degradation mixtures in hand, the minimum inhibitory concentration (MIC) was screened against a number of gram-positive and gram-negative bacteria, including E. faecalis, E. coli, P. aeruginosa, S. aureus, S. agalactiae, and S. epidermidis. To determine the activity, optical density (OD) at 600 nm was measured to estimate the concentration of bacteria at concentrations from 1.6 -100 μM. Values below 0.05 are counted as active and indicates inhibition of growth, illustrated by plotting OD against the concentration for compounds 6-9, (FIG. 9). […] Black stapled lines at 0.05 for MIC and 30% for biofilm formation indicate activity threshold values. […] No activity was observed against the gram-negative bacteria (Table 3).

The subject of data set [6] is S. Aureus. The description is as above. The format is cell-based. Set-up: key to Minimum inhibitory concentration, S. Aureus: I = inactive, i.e. below the activity threshold. Particulars: screened at 100-1.6 μM; for MIC: Staphylococcus aureus. The protocol: as §1
The test system of data set [7] is S. Agalactiae. Described as above. The format is cell-based. Also on record: key to Minimum inhibitory concentration, S. Agalactiae: I = inactive, i.e. below the activity threshold. Particulars: screened at 100-1.6 μM; for MIC: Streptococcus agalactiae. Here is the method: as §1
Data set [8] concerns S. Epidermidis. The data set can be described thus: Biofilm inhibition. The format is cell-based. Conditions: threshold 30% biofilm formation. The protocol: as §1
Data set [9] in a line: Solubility observed as precipitation in the MIC test. It counts as physicochemical. Conditions: higher concentrations in the S. agalactiae MIC test. The protocol: as §1
The mark [10] stands for this setting: pH 11, 2 hours irradiation, acetonitrile and water (7:3), medium pressure mercury lamp.
Where [11] appears, read: pH 13, 2 hours irradiation, acetonitrile and water (7:3), medium pressure mercury lamp.

In brackets after ≈: the same amount, converted by molar mass.

For the compound `O=[N+]([O-])c1ccc(NCC(O)Cc2ccccc2)cc1` (centres unmarked) [Compound 1], the “conversion after photolysis” value in [1] (pH 5, 2 hours irradiation) was “stops completely”; in data set [1] (setting [10]), 100%; in data set [1] (setting [11]) it was 100%. In addition, the “time to full decomposition” value in data set [1] (pH 7, extrapolated from conversion after 2 hours) is “ca. 6 hours”. For the same compound, the E in [2] came to 1740.0 M⁻¹ cm⁻¹. The compound further showed a λmax in [2] of 384 nm. The “conversion in reference experiments in the dark” value in data set [3] is reported as “no conversion”.
On to `O=[N+]([O-])c1cccc(NCC(O)Cc2ccccc2)c1` (centres unmarked) [Compound 2], for which the conversion after photolysis in data set [1] (setting [10]) is 17%. The compound also yielded a conversion after photolysis in data set [1] (setting [11]) of 17%. For the same compound, the “stability under irradiation at lower pH” value in data set [1] is given as “remained stable”. In [2], the E came to 1331.3 M⁻¹ cm⁻¹ and the λmax was determined as 400 nm.
Consider `O=[N+]([O-])c1ccc(CC(O)CNc2ccccc2)cc1` (centres unmarked) [Compound 3], for which the conversion after photolysis in [1] (setting [11]) amounted to 40%. Further, in data set [2], the E worked out at 15066.6 M⁻¹ cm⁻¹ and the λmax worked out at 248 nm.
Turning to `O=[N+]([O-])c1cccc(CC(O)CNc2ccccc2)c1` (centres unmarked) [Compound 4], in [1] (setting [11]), the conversion after photolysis is on record as 56%. In data set [2], this compound registered an E of 17018.7 M⁻¹ cm⁻¹ and a λmax of 248 nm.
Turning to `O=C(NCC(O)CNc1ccc([N+](=O)[O-])cc1)C(Cl)Cl` (centres unmarked) [Compound 5], the conversion after photolysis was 68% in data set [1] (setting [10]); 60% in [1] (pH 11, 2 hours irradiation, acetonitrile and water (7:3), medium pressure mercury lamp, listed as compound resembling chloramphenicol); “Full conversion” in [1] (pH 13); 100% in data set [1] (setting [11]). In addition, the “stability under irradiation at lower pH” value in [1] is recorded as “remained stable”. Moreover, the E in data set [2] was 17263.9 M⁻¹ cm⁻¹. Besides, the λmax in data set [2] turned out to be 382 nm.
Take `O=[N+]([O-])c1ccc(CC(O)CNc2cc(Cl)c(OC(F)(F)C(F)C(F)(F)F)cc2Cl)cc1` (centres unmarked) [Compound 6]: the “photodegradation” value in [4] is listed as “complete conversion”. In addition, the “Minimum inhibitory concentration, S. Epidermidis” value in data set [5] is reported as “I”. For the same compound, the “Minimum inhibitory concentration, S. Aureus” value in data set [6] was “I”. Moreover, the MIC in [7] turned out to be 6.3 µM (≈ 3.2 µg/mL). Further, the “biofilm inhibition for S. epidermidis” value in data set [8] is 12.5 µM. The “solubility” value in data set [9] was “limited solubility”.
Consider `O=[N+]([O-])c1ccc(F)c(CC(O)CNc2cc(Cl)c(F)c(Cl)c2F)c1F` (centres unmarked) [Compound 7, 1-((3,5-Dichloro-2,4-difluorophenyl)amino)-3-(2,6-difluoro-3-nitrophenyl)propan-2-ol], for which, in data set [5], the “Minimum inhibitory concentration, S. Epidermidis” value is “I”. Also, inhibition of growth in data set [6] (MIC) required 50 µM (≈ 20.7 µg/mL). Also, in [7], the “Minimum inhibitory concentration, S. Agalactiae” value is on record as “I”.
As for `O=[N+]([O-])c1ccc(F)c(CC(O)CNc2cc(Cl)c(OC(F)(F)C(F)C(F)(F)F)cc2Cl)c1F` (centres unmarked) [Compound 8, 1-((2,5-Dichloro-4-(1,1,2,3,3,3-hexafluoropropoxy)phenyl)amino)-3-(2,6-difluoro-3-nitrophenyl)propan-2-ol], in data set [4], the conversion after photolysis was 56% and the “photodegradation” value is on record as “complete degradation was not achieved”. Besides, the “Minimum inhibitory concentration, S. Epidermidis” value in data set [5] was “I”. Further, the “Minimum inhibitory concentration, S. Aureus” value in data set [6] is “I”. Besides, 6.3 µM (≈ 3.42 µg/mL) was the least that counted as inhibitory in [7] (MIC). Moreover, the “biofilm inhibition for S. epidermidis” value in [8] is 25 µM. In addition, in data set [9], the “solubility” value was “limited solubility”.
Turning to `O=[N+]([O-])c1ccc(F)c(CC(O)CNc2cc(Cl)cc(Cl)c2F)c1F` (centres unmarked) [Compound 9, 1-((3,5-Dichloro-2-fluorophenyl)amino)-3-(2,6-difluoro-3-nitrophenyl)propan-2-ol], the MIC in data set [5] (Staphylococcus epidermidis), in data set [6] and in data set [7] was 50 µM (≈ 19.8 µg/mL) in each case.
